Measurements as given in patent US20250065017A1, “Fractionating Extracellular Matrix to Modulate Bioactivity and the Host Response” (University of Pittsburgh - Of the Commonwealth System of …, priority 2014, published 2025).

Tested on: THP1 macrophage-like cells
Assay: Secreted factor analysis (ELISA)
Type: cell-based, human
Procedure: THP-1 human monocytes were obtained from the American Tissue Culture Collection (ATCC, Manassas, VA) and maintained in RPMI, 10% FBS, 1% penicillin/streptomycin, 2 mM L-glutamine, and 1 mM sodium pyruvate in a humidified atmosphere at 37° C. with 5% CO2. For experiments, 500,000 THP-1 cells/mL were plated with 320 nM phorbol 12-myristate 13-acetate (PMA) for 24 hours to induce differentiation into macrophages. Adherent macrophages were washed in PBS and placed in fresh media, followed by a 24 hour incubation to acquiesce. […] Once cells were prepared as described above, aspirin (200 µM, where appropriate) was added for 1 hour. Subsequently, UBM hydrogel (0.5 mg/mL) or pepsin control buffer (0.05 mg/mL) was added and cells were allowed to incubate for 24-72 hours. After incubation, cells were pelleted by centrifugation (700×g, 5 minutes, 4° C.), and the culture supernatants were carefully removed. Supernatants were stored at -80° C. until the time of assay. Secreted factor concentrations in the culture supernatants were determined using commercially available ELISA kits (PGE2, PGF2α, ENZO Life Sciences) and IL-1RA (R&D Systems)) according to the manufacturer's instructions.

[1] = Aspirin 200 μM with UBM hydrogel 0.5 mg/mL, 48 hours

## CC(=O)Oc1ccccc1C(=O)O [Aspirin]
[1]
  IL-1RA secretion: did not cause any significant drop in IL-1RA secretion
  production of PGE2 and PGF2α: reduced production of both PGE2 and PGF2α down to basal levels
THP1, UBM hydrogel 0.5 mg/mL 48 hours, inhibitor pre-treatment 1 hour
  PGE2 production: reduced PGE2 production to baseline levels
